Values quoted from earlier work in patent publication US20120237590A1 (priority 2011, published 2012).

Columns and labels:
[1] = system: Amyloid β; details: mice, 20 mg/kg gavage, 12 weeks
[2] = June 2005 to 2008; 27,996 exenatide and 16,276 sidagliptin users

N[C@@H](CC(=O)N1CCn2c(nnc2C(F)(F)F)C1)Cc1cc(F)c(F)cc1F [Sitagliptin]
decrease of amyloid β levels and amyloid plaques [1]: about 50% | levels of incretin GLP-1 in the brain [1]: increased | users who suffered acute pancreatitis [2]: 0.12%
